This passage reports melting point, IC50 and Percentage change results from US9464053B2, “Compositions for reducing Aβ 42 production and their use in treating alzheimer's disease (AD)” (KAREUS THERAPEUTICS SA, priority 2010, dated 2016).

The subject of data set [1] is Aβ42 secretion. Kind of data set: Reduction of Aβ42 production in human neuronal SH-SY5Y cells (sandwich ELISA of cell media). To be noted: read-out: Aβ42 IC50. It is filed as cell-based. The protocol:
We used the human Neuroblastoma SH-SY5Y cells for drug testing as a model for Aβ42 production. […] Cell toxicity was monitored using the MTT assay and all data reported are corrected for any cell loss.
The capture antibody, detection antibody and secondary antibody as well as standard purified preparations of Aβ42 were obtained from Sigma-Aldrich. Cells were cultured for 24 h in the presence or absence of compounds and the conditioned medium was subjected to sELISA.
Cells were incubated overnight with increasing concentrations the compounds. The cell media was then harvested and Aβ42 in the media was quantitated using sandwich ELISA.

In data set [2] the test system is Aβ-42 levels in brain. Nature of the data set: Brain Aβ-42 levels in rat after two weeks oral treatment (ELISA). It counts as in vivo. To be noted: vs Control; Simvastatin 250 mg/kg oral; group terminated on day 12. The procedure:
Animals are randomized into different treatment groups based on body weight. The test compounds are administered orally for 2 weeks while the control animals are administered the vehicle alone.
At the end of the study, animals are sacrificed 2 hours after the last dose and brain samples are excised and immediately frozen on dry ice. The frozen brains are homogenized in 3 volumes (w/v) of ice-cold 0.2% Diethylamine containing 50 mM NaCl, pH 10, and protease inhibitors, and then centrifuged at 15000 rpm at 4° C. for 30 min using a centrifuge. The resulting supernatant is retained as the soluble fraction and neutralized by addition of 10% 0.5 M Tris-HCl, pH 6.8.
Ar3-42 levels in brain tissue extracts were determined by ELISA. […] 100 μL of this was coated per well in a 96 well immunoplate (NUNC) at 4° C. for 16-18 hours. The plate was washed 3× with 230 μL of wash buffer. The wells were then blocked with 150 μL of blocking buffer for 1 hour. The plate was washed 3× with 230 μL of wash buffer. Samples, standard (2500-1.1 ng/ml) and blank were added to the appropriate wells and incubated with mild shaking for 2 hours. The plate was then washed 3× with 230 μL of wash buffer. […] 100 μL of this was added per well and incubated with mild shaking for 2 hours. The plate was washed 3× with 230 μl of wash buffer. 100 lit of Detection antibody, Anti-rabbit IgG whole molecule HRP conjugate (Sigma A6154 diluted 1:1000 with 1% BSA) added in to the wells and incubated for 2 hours with mild shaking. The plate was washed 3× with 230 μl of wash buffer followed by 100 μL of Strepavidin HRP (1:200 diluted with 1% BSA). The plate was 3× with 230 μL of wash buffer and 100 μL of TMB/H2O2 substrate was added and incubated for 20 minutes. The reaction was topped by adding 50 μL of 2N H2SO4 and the absorbance was measured at 450/570 nm in a microplate reader (BioTek)
(An ELISA detects its analyte on a solid surface through an enzyme-linked reagent.)

Where [3] appears, read: SH-SY5Y cells incubated overnight, Aβ42 in media by sandwich ELISA.

Each structure is given as a SMILES string. Where a name gives a salt, the structure may show the parent alone. Read-outs that look alike come from different tables or passages of the source.

Broadly, the melting point is the temperature of the solid-liquid transition. Take `C=CCc1ccc(OC(=O)COC(=O)c2cccnc2)c(OC)c1` (as salt: hydrochloride) [Compound 8, nicotinic acid 4-allyl-2-methoxy-phenoxycarbonylmethyl ester]: the melting point lay within 109.3 to 111.2 °C. The IC50 is the concentration that inhibits the measured activity by half. Consider `C=CCc1ccc(OC(=O)C(CCSC)NC(=O)c2cccnc2)c(OC)c1` (centres unmarked) [Compound 2, 4-methyl-sulfanyl-2-[(pyridine-3carbonyl)-amino] butyric acid-4-allyl-2-methoxy phenyl ester], for which, in data set [1] (setting [3]), the 50% inhibitory concentration (IC50) was greater than 52.2 µM. In the case of `C=CCc1ccc(OC(=O)C(NC(=O)c2cccnc2)C(C)C)c(OC)c1` (centres unmarked) [Compound 3, 3-methyl-2-[pyridine-3-carbonyl]-amino-butyric acid-4-allyl-2-methoxy phenyl ester], the half-maximal inhibitory concentration (IC50) in data set [1] (setting [3]) was greater than 52.2 µM. Regarding `C=CCc1ccc(OC(=O)C(Cc2c[nH]c3ccccc23)NC(=O)c2cccnc2)c(OC)c1` (centres unmarked) [Compound 4], the half-maximal inhibitory concentration (IC50) in data set [1] (setting [3]) was greater than 52.2 µM. For `C=CCc1ccc(OC(=O)C(Cc2ccc(O)cc2)NC(=O)c2cccnc2)c(OC)c1` (centres unmarked) [Compound 5, 3-(4-hydroxyphenyl)2-[(pyridine-3-carbonyl)amino]propionic acid-4-allyl-2-methoxy phenyl ester], the IC50 in data set [1] (setting [3]) was greater than 52.2 µM. On to `C=CCc1ccc(OC(=O)C(NC(=O)c2cccnc2)C(C)CC)c(OC)c1` (centres unmarked) [Compound 6, 3-methyl-2-[pyridine-3-carbonyl]-amino-pentanoic acid-4-allyl-2-methoxy phenyl ester], for which the 50% inhibitory concentration (IC50) in data set [1] (setting [3]) was greater than 52.2 µM.

As for `C=CCc1ccc(OC(=O)C(CCC(=O)O)NC(=O)c2cccnc2)c(OC)c1` (centres unmarked) [Compound 7, 2-[pyridine-3-carbonyl-amino]-pentane dioic acid-1-(4-allyl-2-methoxyphenyl)ester], the half-maximal inhibitory concentration (IC50) in data set [1] (setting [3]) is greater than 52.2 µM.

As to `C=CCc1ccc(OC(=O)COC(=O)c2cccnc2)c(OC)c1` [Compound 8, nicotinic acid 4-allyl-2-methoxy-phenoxycarbonylmethyl ester], the 50% inhibitory concentration (IC50) in data set [1] (SH-SY5Y) is greater than 15 µM. Regarding `C=CCc1ccc(OC(=O)C2CCCN2C(=O)c2cccnc2)c(OC)c1` (centres unmarked) [Compound 10, 1-(pyridine-3-carbonyl)-pyrrolidine-2-carboxylic acid 4-allyl-2-methoxy-phenyl ester], the 50% inhibitory concentration (IC50) in data set [1] (setting [3]) was found to be 33.4 µM. Consider `C=CCc1ccc(OC(=O)CNC(=O)c2cccnc2)c(OC)c1` [Compound 11, [(pyridine-3-carbonyl)-amino]-acetic acid 4-allyl-2-methoxy-phenyl ester], for which the 50% inhibitory concentration (IC50) in data set [1] (setting [3]) stood at 15.9 µM. For `C=CCc1ccc(OC(=O)CCCNC(=O)c2cccnc2)c(OC)c1` [Compound 13, 4[(pyridine-3-carbonyl)-amino]-butyric acid-4-allyl-2-methoxy phenyl ester], the IC50 in data set [1] (setting [3]) worked out at 26.1 µM. As to `C=CCc1ccc(OC(=O)C(C)NC(=O)c2cccnc2)c(OC)c1` (centres unmarked) [Compound 14, 4-allyl-2-methoxyphenyl 2-(nicotinamido) propanoate], the concentration for half-maximal inhibition (IC50) in data set [1] (setting [3]) came to 15.4 µM. Regarding `C=CCc1ccc(OC(=O)C(CC(C)C)NC(=O)c2cccnc2)c(OC)c1` (centres unmarked) [Compound 15, 4-methyl-2-[pyridine-3-carbonyl]-amino-pentanoic acid-4-allyl-2-methoxy phenyl ester], the half-maximal inhibitory concentration (IC50) in data set [1] (setting [3]) was greater than 52.2 µM. `CCC(C)(C)C(=O)O[C@H]1C[C@@H](C)C=C2C=C[C@H](C)[C@H](CC[C@@H]3C[C@@H](O)CC(=O)O3)[C@H]21` [Simvastatin, reference compound] had a Percentage change in data set [2] of 8%.
